Our source for the IC50 values is patent publication US8697739B2, “Bicyclic acetyl-CoA carboxylase inhibitors and uses thereof” (Novartis AG, priority 2010, dated 2014).

A value given as a limit tells only on which side of the number the result lay.

T1 sequence (O00763 144-2458): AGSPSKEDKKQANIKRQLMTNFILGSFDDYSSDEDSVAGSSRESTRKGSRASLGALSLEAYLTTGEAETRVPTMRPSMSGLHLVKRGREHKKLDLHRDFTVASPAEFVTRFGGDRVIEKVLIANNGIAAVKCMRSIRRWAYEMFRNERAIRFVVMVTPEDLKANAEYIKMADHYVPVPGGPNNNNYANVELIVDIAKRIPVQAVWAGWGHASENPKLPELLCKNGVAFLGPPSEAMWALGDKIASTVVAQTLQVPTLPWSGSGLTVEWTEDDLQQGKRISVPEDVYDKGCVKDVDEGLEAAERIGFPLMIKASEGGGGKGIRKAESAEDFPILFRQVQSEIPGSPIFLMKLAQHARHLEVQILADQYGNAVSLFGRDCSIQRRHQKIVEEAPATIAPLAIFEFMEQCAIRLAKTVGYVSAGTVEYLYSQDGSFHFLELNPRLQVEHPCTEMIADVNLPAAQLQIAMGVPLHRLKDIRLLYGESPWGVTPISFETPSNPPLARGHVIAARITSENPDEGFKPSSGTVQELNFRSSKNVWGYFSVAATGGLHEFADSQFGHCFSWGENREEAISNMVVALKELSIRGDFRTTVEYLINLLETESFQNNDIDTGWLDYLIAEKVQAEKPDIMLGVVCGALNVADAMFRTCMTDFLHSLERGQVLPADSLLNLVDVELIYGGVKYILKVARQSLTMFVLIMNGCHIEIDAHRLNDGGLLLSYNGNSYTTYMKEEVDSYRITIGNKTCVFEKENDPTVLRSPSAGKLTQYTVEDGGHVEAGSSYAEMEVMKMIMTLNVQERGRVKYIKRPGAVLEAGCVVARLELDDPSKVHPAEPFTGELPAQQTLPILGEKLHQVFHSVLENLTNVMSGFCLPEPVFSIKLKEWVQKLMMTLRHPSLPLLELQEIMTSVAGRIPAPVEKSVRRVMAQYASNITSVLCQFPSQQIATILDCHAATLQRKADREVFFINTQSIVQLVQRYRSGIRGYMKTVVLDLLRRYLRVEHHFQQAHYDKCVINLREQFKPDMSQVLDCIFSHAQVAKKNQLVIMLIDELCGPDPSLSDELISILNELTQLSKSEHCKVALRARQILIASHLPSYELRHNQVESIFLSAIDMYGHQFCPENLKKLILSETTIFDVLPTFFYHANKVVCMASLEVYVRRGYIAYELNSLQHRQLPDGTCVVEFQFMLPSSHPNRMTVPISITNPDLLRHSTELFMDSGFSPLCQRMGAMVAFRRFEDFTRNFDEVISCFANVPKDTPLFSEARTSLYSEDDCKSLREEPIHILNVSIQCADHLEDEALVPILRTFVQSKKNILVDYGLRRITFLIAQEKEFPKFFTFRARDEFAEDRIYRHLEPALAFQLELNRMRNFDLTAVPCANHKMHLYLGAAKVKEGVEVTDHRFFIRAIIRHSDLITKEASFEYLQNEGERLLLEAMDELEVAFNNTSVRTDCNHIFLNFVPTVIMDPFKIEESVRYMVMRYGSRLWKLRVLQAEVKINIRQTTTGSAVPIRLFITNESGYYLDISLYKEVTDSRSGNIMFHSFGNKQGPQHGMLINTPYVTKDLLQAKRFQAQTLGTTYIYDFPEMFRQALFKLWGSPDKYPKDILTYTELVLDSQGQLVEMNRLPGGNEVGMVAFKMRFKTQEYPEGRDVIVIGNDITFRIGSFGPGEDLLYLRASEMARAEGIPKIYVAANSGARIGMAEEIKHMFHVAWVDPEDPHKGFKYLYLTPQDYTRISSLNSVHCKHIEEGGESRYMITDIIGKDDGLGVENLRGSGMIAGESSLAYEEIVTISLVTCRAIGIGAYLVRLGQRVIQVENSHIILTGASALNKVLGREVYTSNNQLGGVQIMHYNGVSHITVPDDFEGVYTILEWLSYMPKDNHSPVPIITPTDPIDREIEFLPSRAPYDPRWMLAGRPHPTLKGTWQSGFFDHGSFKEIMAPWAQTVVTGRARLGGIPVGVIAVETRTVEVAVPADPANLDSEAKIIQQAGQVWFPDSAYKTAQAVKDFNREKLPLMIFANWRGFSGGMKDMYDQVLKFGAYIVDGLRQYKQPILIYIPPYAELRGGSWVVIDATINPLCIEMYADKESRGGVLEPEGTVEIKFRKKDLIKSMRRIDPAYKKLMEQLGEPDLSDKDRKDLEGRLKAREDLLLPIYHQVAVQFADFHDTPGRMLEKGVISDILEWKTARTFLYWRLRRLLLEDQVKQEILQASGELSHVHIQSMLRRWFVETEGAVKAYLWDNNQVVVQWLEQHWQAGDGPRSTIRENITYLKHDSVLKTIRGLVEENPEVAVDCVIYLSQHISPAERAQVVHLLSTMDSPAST

This test has as its target T1, human acetyl-CoA carboxylase 2 (ACC2) (Homo sapiens, UniProt O00763).
T1 construct: The cDNA encoding amino acids 144 to 2458 of human acetyl-CoA carboxylase 2; made in house; host or cells: Sf9 insect cells (baculovirus, pFastBac1)
Kind of test: Acetyl-CoA carboxylase enzyme assay (malonyl-CoA formation by LC/MS/MS). It is filed as biochemical. Conditions: recombinant human ACC2 (aa 144-2458); read-out: IC50 ACC2. The method in brief:
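Malonyl-CoA formation was read by LC/MS/MS MRM against a [13C3]-malonyl-CoA internal standard, after acetic acid quench. The enzyme was baculovirus/Sf9-expressed human ACC2 residues 144–2458, given 15 minutes room-temperature compound preincubation in HEPES pH 7.5 buffer with MgCl2, citrate and DTT. Substrate solution held 50 μM acetyl-CoA, 120 μM ATP and 2 mM KHCO3.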
Regarding `CC(C)OC(=O)c1ccc(NS(=O)(=O)c2ccc3[nH]c(Nc4cccc(Cl)c4)nc3c2)cc1` [Example 547, isopropyl 4-(2-(3-chlorophenylamino)-1H-benzo[d]imidazole-5-sulfonamido)benzoate], the IC50 came out at 374 nM.

Take `CC(=O)c1ccc(Nc2nc3cc(S(=O)(=O)Nc4ccc(C(=O)OC(C)C)cc4)ccc3[nH]2)cc1` [Example 548, isopropyl 4-(2-(4-acetylphenylamino)-1H-benzo[d]imidazole-5-sulfonamido)benzoate]: the concentration for half-maximal inhibition (IC50) came to 75 nM.

Consider `CC(C)OC(=O)c1ccc(NS(=O)(=O)c2ccc3[nH]c(Nc4cccc(-n5ccsc5=O)c4)nc3c2)cc1` [Example 549, isopropyl 4-(2-(3-(2-oxothiazol-3(2H)-yl)phenylamino)-1H-benzo[d]imidazole-5-sulfonamido)benzoate], for which the IC50 came to 737 nM.

On to `CC(C)OC(=O)c1ccc(NS(=O)(=O)c2ccc3[nH]c(Nc4ccc([N+](=O)[O-])cc4)nc3c2)cc1` [Example 550, isopropyl 4-(2-(4-nitrophenylamino)-1H-benzo[d]imidazole-5-sulfonamido)benzoate], for which the half-inhibitory concentration (IC50) was determined as 240 nM.

As for `CC(C)OC(=O)c1ccc(NS(=O)(=O)c2ccc3[nH]c(Nc4ccc(N(C)C)cc4)nc3c2)cc1` [Example 551, isopropyl 4-(2-(4-(dimethylamino)phenylamino)-1H-benzo[d]imidazole-5-sulfonamido)benzoate], the IC50 came to 282 nM.

With `CC(C)OC(=O)c1ccc(NS(=O)(=O)c2ccc3[nH]c(Nc4ccc(C#N)cc4)nc3c2)cc1` [Example 552, isopropyl 4-(2-(4-cyanophenylamino)-1H-benzo[d]imidazole-5-sulfonamido)benzoate], the IC50 worked out at 334 nM.

In the case of `CC(C)OC(=O)c1ccc(NS(=O)(=O)c2ccc3[nH]c(Nc4cccc(C(C)O)c4)nc3c2)cc1` (centres unmarked) [Example 553, isopropyl 4-(2-(3-(1-hydroxyethyl)phenylamino)-1H-benzo[d]imidazole-5-sulfonamido)benzoate], the IC50 came to 119 nM.

Regarding `CC(C)OC(=O)[C@H]1CC[C@H](NS(=O)(=O)c2ccc3[nH]c(Nc4ccccc4)nc3c2)CC1` [Example 554, (1r,4r)-isopropyl 4-(2-(phenylamino)-1H-benzo[d]imidazole-5-sulfonamido)cyclohexanecarboxylate], the concentration for half-maximal inhibition (IC50) was determined as 28 nM.

Consider `COc1ccc(Nc2nc3cc(S(=O)(=O)N[C@H]4CC[C@H](C(=O)OC(C)C)CC4)ccc3[nH]2)cc1` [Example 555, (1r,4r)-isopropyl 4-(2-(4-methoxyphenylamino)-1H-benzo[d]imidazole-5-sulfonamido)cyclohexanecarboxylate], for which the IC50 worked out at 30 nM.

On to `CC(C)OC(=O)[C@H]1CC[C@H](NS(=O)(=O)c2ccc3[nH]c(-c4ccc(C(C)O)cc4)nc3c2)CC1` (some centres unmarked) [Example 556, (1r,4r)-isopropyl 4-(2-(4-(1-hydroxyethyl)phenyl)-1H-benzo[d]imidazole-5-sulfonamido)cyclohexanecarboxylate], for which the IC50 came to 25 nM.

Take `CC(C)OC(=O)[C@H]1CC[C@H](NS(=O)(=O)c2ccc3[nH]c(-c4ccc(N5CCN(C)CC5)cc4)nc3c2)CC1` [Example 557, (1r,4r)-isopropyl 4-(2-(4-(4-methylpiperazin-1-yl)phenyl)-1H-benzo[d]imidazole-5-sulfonamido)cyclohexanecarboxylate]: the IC50 worked out at 13 nM.

Take `CC(C)OC(=O)c1ccc(NS(=O)(=O)c2ccc3[nH]c(-c4ccc(CN(C)C)cc4)nc3c2)cc1` [Example 558, isopropyl 4-(2-(4-((dimethylamino)methyl)phenyl)-1H-benzo[d]imidazole-5-sulfonamido)benzoate]: the IC50 is 337 nM.

Turning to `CNCc1ccc(-c2nc3cc(S(=O)(=O)Nc4ccc(C(=O)OC(C)C)cc4)ccc3[nH]2)cc1` [Example 559, isopropyl 4-(2-(4-((methylamino)methyl)phenyl)-1H-benzo[d]imidazole-5-sulfonamido)benzoate], the 50% inhibitory concentration (IC50) is 163 nM.

Consider `CC(C)OC(=O)c1ccc(NS(=O)(=O)c2ccc3[nH]c(-c4ccc(CNCc5ccccc5)cc4)nc3c2)cc1` [Example 560, isopropyl 4-(2-(4-((benzylamino)methyl)phenyl)-1H-benzo[d]imidazole-5-sulfonamdo)benzoate], for which the IC50 stood at 397 nM.

For the compound `CC(C)OC(=O)c1ccc(NS(=O)(=O)c2ccc3[nH]c(-c4ccc(CN5CCN(C)CC5)cc4)nc3c2)cc1` [Example 561, isopropyl 4-(2-(4-((4-methylpiperazin-1-yl)methyl)phenyl)-1H-benzo[d]imidazole-5-sulfonamido)benzoate], the IC50 turned out to be 316 nM.

As to `CC(C)OC(=O)c1ccc(NS(=O)(=O)c2ccc3[nH]c(-c4ccc(CN5CCOCC5)cc4)nc3c2)cc1` [Example 562, isopropyl 4-(2-(4-(morpholinomethyl)phenyl)-1H-benzo[d]imidazole-5-sulfonamido)benzoate], the IC50 stood at 676 nM.

Take `COc1ccc(CNCc2ccc(-c3nc4cc(S(=O)(=O)Nc5ccc(C(=O)OC(C)C)cc5)ccc4[nH]3)cc2)cc1OC` [Example 563, isopropyl 4-(2-(4-((3,4-dimethoxybenzylamino)methyl)phenyl)-1H-benzo[d]imidazole-5-sulfonamido)benzoate]: the half-inhibitory concentration (IC50) was found to be 351 nM.

In the case of `CC(C)N(C)C(=O)[C@H]1CC[C@H](NS(=O)(=O)c2ccc3[nH]c(-c4ccc(N5CCN(C)CC5)cc4)nc3c2)CC1` [Example 564, (1r,4r)-N-isopropyl-N-methyl-4-(2-(4-(4-methylpiperazin-1-yl)phenyl)-1H-benzo[d]imidazole-5-sulfonamido)cyclohexanecarboxamide], the IC50 was found to be 27 nM.

With `CCCN(C)C(=O)[C@H]1CC[C@H](NS(=O)(=O)c2ccc3[nH]c(-c4ccc(N5CCN(C)CC5)cc4)nc3c2)CC1` [Example 565, (1r,4r)-N-methyl-4-(2-(4-(4-methylpiperazin-1-yl)phenyl)-1H-benzo[d]imidazole-5-sulfonamido)-N-propylcyclohexanecarboxamide], the IC50 is 48 nM.

For `CCCN(C)C(=O)[C@H]1CC[C@H](NS(=O)(=O)c2ccc3[nH]c(Nc4ccccc4)nc3c2)CC1` [Example 566, (1r,4r)-N-methyl-4-(2-(phenylamino)-1H-benzo[d]imidazole-5-sulfonamido)-N-propylcyclohexanecarboxamide], the IC50 was found to be 118 nM.

Regarding `CCN(C)C(=O)[C@H]1CC[C@H](NS(=O)(=O)c2ccc3[nH]c(-c4ccc(N5CCN(C)CC5)cc4)nc3c2)CC1` [Example 567, (1r,4r)-N-ethyl-N-methyl-4-(2-(4-(4-methylpiperazin-1-yl)phenyl)-1H-benzo[d]imidazole-5-sulfonamido)cyclohexanecarboxamide], the IC50 was 65 nM.

On to `CCN(C)C(=O)[C@H]1CC[C@H](NS(=O)(=O)c2ccc3[nH]c(Nc4ccccc4)nc3c2)CC1` [Example 568, (1r,4r)-N-ethyl-N-methyl-4-(2-(phenylamino)-1H-benzo[d]imidazole-5-sulfonamido)cyclohexanecarboxamide], for which the IC50 is 126 nM.

Take `C[C@@H](NC(=O)[C@H]1CC[C@H](NS(=O)(=O)c2ccc3[nH]c(Nc4ccccc4)nc3c2)CC1)c1ccccc1` [Example 569, (1r,4R)-4-(2-(phenylamino)-1H-benzo[d]imidazole-5-sulfonamido)-N-((R)-1-phenylethyl)cyclohexanecarboxamide]: the IC50 is less than 10 nM.
